Numbers after ± are expanded uncertainties.
Assay: wn = mass fraction of the nth substance listed
Details: 101 kPa, Liquid; for viscosity: Capillary tube (Ostwald / Ubbelohde) method; for speed of sound: Frequency=3 MHz, Linear variable-path acoustic interferometer; for mass density: Pycnometric method

**Q.** With `O=C[C@H](O)[C@@H](O)[C@H](O)[C@H](O)CO` [D-glucose] + O as the molecule, how does the viscosity (293.15 K, w1 = 0.05) read?
**A.** 1.176 ± 0.12 mPa·s

**Q.** And the viscosity (293.15 K, w1 = 0.1)?
**A.** 1.357 ± 0.14 mPa·s

**Q.** What about the viscosity (293.15 K, w1 = 0.15) of the same molecule?
**A.** 1.541 ± 0.15 mPa·s

**Q.** And the viscosity (293.15 K, w1 = 0.2)?
**A.** 1.877 ± 0.19 mPa·s

**Q.** What about the speed of sound (293.15 K, w1 = 0.1) of the same molecule?
**A.** 1521.4 ± 10 m/s

**Q.** What about the speed of sound (293.15 K, w1 = 0.15) of the same molecule?
**A.** 1532.4 ± 10 m/s

**Q.** And the speed of sound (293.15 K, w1 = 0.2)?
**A.** 1543.2 ± 10 m/s

**Q.** What about the mass density (293.15 K, w1 = 0.05) of the same molecule?
**A.** 1016.28 ± 6 kg/m3

**Q.** And the mass density (293.15 K, w1 = 0.1)?
**A.** 1034.79 ± 6 kg/m3

**Q.** And the mass density (293.15 K, w1 = 0.15)?
**A.** 1053.29 ± 6 kg/m3

**Q.** What about the mass density (293.15 K, w1 = 0.2) of the same molecule?
**A.** 1072.41 ± 6 kg/m3

**Q.** And the viscosity (298.15 K, w1 = 0.05)?
**A.** 0.9767 ± 0.098 mPa·s

**Q.** And the viscosity (298.15 K, w1 = 0.1)?
**A.** 1.12 ± 0.11 mPa·s

**Q.** And the viscosity (298.15 K, w1 = 0.15)?
**A.** 1.316 ± 0.13 mPa·s

**Q.** And the viscosity (298.15 K, w1 = 0.2)?
**A.** 1.67 ± 0.17 mPa·s

**Q.** What about the speed of sound (298.15 K, w1 = 0.05) of the same molecule?
**A.** 1514.3 ± 10 m/s

**Q.** And the speed of sound (298.15 K, w1 = 0.1)?
**A.** 1530.6 ± 10 m/s

**Q.** And the speed of sound (298.15 K, w1 = 0.15)?
**A.** 1542.5 ± 10 m/s

**Q.** What about the speed of sound (298.15 K, w1 = 0.2) of the same molecule?
**A.** 1553.3 ± 10 m/s

**Q.** What about the mass density (298.15 K, w1 = 0.05) of the same molecule?
**A.** 1014.69 ± 6 kg/m3

**Q.** And the mass density (298.15 K, w1 = 0.1)?
**A.** 1033.15 ± 6 kg/m3

**Q.** And the mass density (298.15 K, w1 = 0.15)?
**A.** 1051.61 ± 6 kg/m3

**Q.** And the mass density (298.15 K, w1 = 0.2)?
**A.** 1070.31 ± 6 kg/m3

**Q.** What about the viscosity (303.15 K, w1 = 0.05) of the same molecule?
**A.** 0.8605 ± 0.086 mPa·s

**Q.** And the viscosity (303.15 K, w1 = 0.1)?
**A.** 0.9907 ± 0.099 mPa·s

**Q.** And the viscosity (303.15 K, w1 = 0.15)?
**A.** 1.147 ± 0.12 mPa·s

**Q.** What about the viscosity (303.15 K, w1 = 0.2) of the same molecule?
**A.** 1.491 ± 0.15 mPa·s

**Q.** And the speed of sound (303.15 K, w1 = 0.05)?
**A.** 1525.1 ± 10 m/s

**Q.** And the speed of sound (303.15 K, w1 = 0.1)?
**A.** 1540.3 ± 10 m/s

**Q.** What about the speed of sound (303.15 K, w1 = 0.15) of the same molecule?
**A.** 1551.5 ± 10 m/s

**Q.** And the speed of sound (303.15 K, w1 = 0.2)?
**A.** 1563.1 ± 10 m/s

**Q.** And the mass density (303.15 K, w1 = 0.05)?
**A.** 1013.08 ± 6 kg/m3

**Q.** What about the mass density (303.15 K, w1 = 0.1) of the same molecule?
**A.** 1031.5 ± 6 kg/m3

**Q.** And the mass density (303.15 K, w1 = 0.15)?
**A.** 1049.92 ± 6 kg/m3

**Q.** What about the mass density (303.15 K, w1 = 0.2) of the same molecule?
**A.** 1068.17 ± 6 kg/m3

**Q.** And the viscosity (308.15 K, w1 = 0.05)?
**A.** 0.7697 ± 0.077 mPa·s

**Q.** What about the viscosity (308.15 K, w1 = 0.1) of the same molecule?
**A.** 0.8844 ± 0.089 mPa·s

**Q.** And the viscosity (308.15 K, w1 = 0.15)?
**A.** 1.018 ± 0.1 mPa·s

**Q.** And the viscosity (308.15 K, w1 = 0.2)?
**A.** 1.345 ± 0.13 mPa·s

**Q.** What about the speed of sound (308.15 K, w1 = 0.05) of the same molecule?
**A.** 1535.7 ± 10 m/s

**Q.** And the speed of sound (308.15 K, w1 = 0.1)?
**A.** 1550.2 ± 10 m/s

**Q.** What about the speed of sound (308.15 K, w1 = 0.15) of the same molecule?
**A.** 1560.5 ± 10 m/s

**Q.** And the speed of sound (308.15 K, w1 = 0.2)?
**A.** 1573.5 ± 10 m/s

**Q.** What about the mass density (308.15 K, w1 = 0.05) of the same molecule?
**A.** 1011.47 ± 6 kg/m3

**Q.** And the mass density (308.15 K, w1 = 0.1)?
**A.** 1029.84 ± 6 kg/m3

**Q.** What about the mass density (308.15 K, w1 = 0.15) of the same molecule?
**A.** 1048.37 ± 6 kg/m3

**Q.** What about the mass density (308.15 K, w1 = 0.2) of the same molecule?
**A.** 1065.97 ± 6 kg/m3

**Q.** And the viscosity (313.15 K, w1 = 0.05)?
**A.** 0.6945 ± 0.07 mPa·s

**Q.** And the viscosity (313.15 K, w1 = 0.1)?
**A.** 0.7901 ± 0.079 mPa·s

**Q.** And the viscosity (313.15 K, w1 = 0.15)?
**A.** 0.8925 ± 0.089 mPa·s

**Q.** And the viscosity (313.15 K, w1 = 0.2)?
**A.** 1.21 ± 0.12 mPa·s

**Q.** And the speed of sound (313.15 K, w1 = 0.05)?
**A.** 1545.6 ± 10 m/s

**Q.** And the speed of sound (313.15 K, w1 = 0.1)?
**A.** 1559.9 ± 10 m/s

**Q.** What about the speed of sound (313.15 K, w1 = 0.15) of the same molecule?
**A.** 1569.6 ± 10 m/s

**Q.** And the speed of sound (313.15 K, w1 = 0.2)?
**A.** 1582.2 ± 10 m/s

**Q.** And the mass density (313.15 K, w1 = 0.05)?
**A.** 1009.85 ± 6 kg/m3

**Q.** What about the mass density (313.15 K, w1 = 0.1) of the same molecule?
**A.** 1028.17 ± 6 kg/m3

**Q.** What about the mass density (313.15 K, w1 = 0.15) of the same molecule?
**A.** 1046.62 ± 6 kg/m3

**Q.** And the mass density (313.15 K, w1 = 0.2)?
**A.** 1063.76 ± 6 kg/m3

**Q.** And the viscosity (318.15 K, w1 = 0.05)?
**A.** 0.6334 ± 0.064 mPa·s

**Q.** What about the viscosity (318.15 K, w1 = 0.1) of the same molecule?
**A.** 0.7223 ± 0.072 mPa·s

**Q.** And the viscosity (318.15 K, w1 = 0.15)?
**A.** 0.8097 ± 0.081 mPa·s

**Q.** And the viscosity (318.15 K, w1 = 0.2)?
**A.** 1.112 ± 0.11 mPa·s

**Q.** What about the speed of sound (318.15 K, w1 = 0.05) of the same molecule?
**A.** 1554.5 ± 10 m/s

**Q.** And the speed of sound (318.15 K, w1 = 0.1)?
**A.** 1568.4 ± 10 m/s

**Q.** And the speed of sound (318.15 K, w1 = 0.15)?
**A.** 1577.2 ± 10 m/s

**Q.** And the speed of sound (318.15 K, w1 = 0.2)?
**A.** 1591.2 ± 10 m/s

**Q.** And the mass density (318.15 K, w1 = 0.1)?
**A.** 1026.48 ± 6 kg/m3

**Q.** And the mass density (318.15 K, w1 = 0.15)?
**A.** 1044.93 ± 6 kg/m3

**Q.** What about the mass density (318.15 K, w1 = 0.2) of the same molecule?
**A.** 1061.52 ± 6 kg/m3
